The record followed here is paper PMC9866752 (Life, 2023).

The target in one data set is T1, human Frataxin (FXN) (Homo sapiens, UniProt Q16595).
T1 construct: D91-A210, N-terminal 6xHis-GST tag cut with thrombin; E. coli BL21; 15N-labelled
T1 sequence (Q16595 91-210): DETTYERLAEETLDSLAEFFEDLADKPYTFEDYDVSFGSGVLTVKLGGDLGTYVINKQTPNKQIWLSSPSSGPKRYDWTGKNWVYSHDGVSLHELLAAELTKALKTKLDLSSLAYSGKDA
Description: NMR 1H-15N SOFAST-HMQC titration, chemical shift perturbation, Hill fit. It is filed as binding.

Data set [1] deals with the molecule itself. The data set is described as follows: SEC; Sd200/16/600 gel filtration column, last step of the purification; buffer with 50 mM MOPS-Tris pH 8.0, 100 mM KCl, 1% sodium cholate, 10% glycerol, 100 uM TCEP. (In gel filtration, larger molecules generally elute earlier.)

Broadly, the EC50 is the midpoint of the concentration-response curve. As for `C=CC1=C(C)c2cc3[nH]c(cc4nc(cc5[nH]c(cc1n2)c(C)c5CCC(=O)O)C(CCC(=O)O)=C4C)c(C)c3C=C` [Protoporphyrin IX], the EC50 at human Frataxin (FXN) stood at 140 µM.

B1: human ferrochelatase (residues R65 to L423) (enzyme, UniProt P22830 65-423, looked up)
chain: RKPKTGILMLNMGGPETLGDVHDFLLRLFLDRDLMTLPIQNKLAPFIAKRRTPKIQEQYRRIGGGSPIKIWTSKQGEGMVKLLDELSPNTAPHKYYIGFRYVHPLTEEAIEEMERDGLERAIAFTQYPQYSCSTTGSSLNAIYRYYNQVGRKPTMKWSTIDRWPTHHLLIQCFADHILKELDHFPLEKRSEVVILFSAHSLPMSVVNRGDPYPQEVSATVQKVMERLEYCNPYRLVWQSKVGPMPWLGPQTDESIKGLCERGRKNILLVPIAFTSDHIETLYELDIEYSQVLAKECGVENIRRAESLNGNPLFSKALADLVHSHIQSNELCSKQLTLSCPLCVNPVCRETKSFFTSQQL
notes: ferrochelatase, human, residues R65 to L423; Eluted as a homodimer (88 kDa); The tag is inferred; no cleavage is described; also called FCH; FECH; source: recombinant expression from pET28a in Luria-Bertani media, purified (cobalt HisTrap, gel filtration)
By stoichiometry N is commonly meant the number of molecules, sites or subunits per partner or assembly. In the case of B1, the “stoichiometry N” value in data set [1] worked out at 2.
